Test results taken from US20150218212A1, “FLUORINATED EPOXYKETONE-BASED TETRAPEPTIDE COMPOUNDS AND USES THEREOF AS PROTEASOME INHIBITORS” (FLUORINOV PHARMA INC., priority 2012, published 2015).

How the values were obtained:
Assay type in all cases: cell-based, human
TK-10 = experiment: NCI screening panel, TK-10 (Renal Cancer)
Experimental: (§1) Representative compounds of Formula I were screened using the National Cancer Institute (NCI) screening panel, which consists of a panel of human tumor cell lines, representing leukemia, melanoma, and cancers of the lung, colon, ovary, breast, prostate and renal system.
(§2) After 24 h, two plates of each cell line are fixed in situ with TCA, to represent a measurement of the cell population for each cell line at the time of drug addition (Tz). Experimental drugs are solubilised in dimethyl sulfoxide at 400-fold the desired final maximum test concentration and stored frozen prior to use. At the time of drug addition, an aliquot of frozen concentrate is thawed and diluted to twice the desired final maximum test concentration with complete medium containing 50 μg/mL gentamicin. Additional four, 10-fold or ½ log serial dilutions are made to provide a total of five drug concentrations plus control. Aliquots of 100 μl of these different drug dilutions are added to the appropriate microtiter wells already containing 100 μl of medium, resulting in the required final drug concentrations.
(§3) Following drug addition, the plates are incubated for an additional 48 h at 37° C., 5% CO2, 95% air, and 100% relative humidity. For adherent cells, the assay is terminated by the addition of cold TCA (trichloroacetic acid). Cells are fixed in situ by the gentle addition of 50 μl of cold 50% (w/v) TCA (final concentration, 10% TCA) and incubated for 60 minutes at 4° C. The supernatant is discarded, and the plates are washed five times with tap water and air dried. Sulforhodamine B (SRB) solution (100 μl) at 0.4% (w/v) in 1% acetic acid is added to each well, and plates are incubated for 10 minutes at room temperature. After staining, unbound dye is removed by washing five times with 1% acetic acid and the plates are air dried. Bound stain is subsequently solubilised with 10 mM trizma base, and the absorbance is read on an automated plate reader at a wavelength of 515 nm. For suspension cells, the methodology is the same except that the assay is terminated by fixing settled cells at the bottom of the wells by gently adding 50 μl of 80% TCA (final concentration, 16% TCA). Using the seven absorbance measurements [time zero, (Tz), control growth, (C), and test growth in the presence of drug at the five concentration levels (Ti)], the percentage growth is calculated at each of the drug concentrations levels. Percentage growth inhibition is calculated as: [(Ti−Tz)/(C−Tz)]×100 for concentrations for which Ti>/=Tz and [(Ti−Tz)/Tz]×100 for concentrations for which Ti<Tz.
(§4) Three dose response parameters are calculated for each experimental agent. Growth inhibition of 50% (GI50) is calculated from [(Ti−Tz)/(C−Tz)]×100=50, which is the drug concentration resulting in a 50% reduction in the net protein increase (as measured by SRB staining) in control cells during the drug incubation. The drug concentration resulting in total growth inhibition (TGI) is calculated from Ti=Tz. The LC50 (concentration of drug resulting in a 50% reduction in the measured protein at the end of the drug treatment as compared to that at the beginning) indicating a net loss of cells following treatment is calculated from [(Ti−Tz)/Tz]×100=−50. Values are calculated for each of these three parameters if the level of activity is reached. However, if the effect is not reached or is exceeded, the value for that parameter is expressed as greater or less than the maximum or minimum concentration tested.

SK-MEL-2 = experiment: NCI screening panel, SK-MEL-2 (Melanoma)
Experimental: as §1, §2, §3, §4

UO-31 = experiment: NCI screening panel, UO-31 (Renal Cancer)
Experimental: as §1, §2, §3, §4

SF-295 = experiment: NCI screening panel, SF-295 (CNS Cancer)
Experimental: as §1, §2, §3, §4

UACC-257 = experiment: NCI screening panel, UACC-257 (Melanoma)
Experimental: as §1, §2, §3, §4

U251 = experiment: NCI screening panel, U251 (CNS Cancer)
Experimental: as §1, §2, §3, §4

ACHN = experiment: NCI screening panel, ACHN (Renal Cancer)
Experimental: as §1, §2, §3, §4

OVCAR-5 = experiment: NCI screening panel, OVCAR-5 (Ovarian Cancer)
Experimental: as §1, §2, §3, §4

HS 578T = experiment: NCI screening panel, HS 578T (Breast Cancer)
Experimental: as §1, §2, §3, §4

786-0 = experiment: NCI screening panel, 786-0 (Renal Cancer)
Experimental: as §1, §2, §3, §4

SK-MEL-5 = experiment: NCI screening panel, SK-MEL-5 (Melanoma)
Experimental: as §1, §2, §3, §4

MDA-MB-435 = experiment: NCI screening panel, MDA-MB-435 (Melanoma)
Experimental: as §1, §2, §3, §4

SK-OV-3 = experiment: NCI screening panel, SK-OV-3 (Ovarian Cancer)
Experimental: as §1, §2, §3, §4

RPMI-8226 = experiment: NCI screening panel, RPMI-8226 (Leukemia)
Experimental: as §1, §2, §3, §4

SMILES: CC(C)C[C@H](NC(=O)[C@H](COC(F)F)NC(=O)CN1CCOCC1)C(=O)N[C@@H](COC(F)F)C(=O)N[C@@H](CC(C)C)C(=O)[C@@]1(C)CO1 [Example 1, (2S)—N-[(1S)-1-(difluoromethoxymethyl)-2-[[(1S)-3-methyl-1-[(2R)-2-methyloxirane-2-carbonyl]butyl]amino]-2-oxo-ethyl]-2-[[(2S)-3-(difluoromethoxy)-2-[(2-morpholinoacetyl)amino]propanoyl]amino]-4-methyl-pentanamide]
- Log10GI50 (TK-10): −6.53
- Log10LC50 (TK-10): >−4.00
- Log10TGI50 (TK-10): −5.17
- Log10GI50 (SK-MEL-2): −7.60
- Log10LC50 (SK-MEL-2): >−4.00
- Log10TGI50 (SK-MEL-2): −7.03
- Log10GI50 (UO-31): −5.70
- Log10LC50 (UO-31): >−4.00
- Log10TGI50 (UO-31): −4.86
- Log10GI50 (SF-295): −7.51
- Log10LC50 (SF-295): −6.09
- Log10TGI50 (SF-295): −6.88
- Log10GI50 (UACC-257): −7.01
- Log10LC50 (UACC-257): >−4.00
- Log10TGI50 (UACC-257): −5.62
- Log10GI50 (U251): −7.58
- Log10LC50 (U251): >−4.00
- Log10TGI50 (U251): −6.75
- Log10GI50 (ACHN): −6.34
- Log10LC50 (ACHN): >−4.00
- Log10TGI50 (ACHN): >−4.00
- Log10GI50 (OVCAR-5): −7.39
- Log10LC50 (OVCAR-5): >−4.00
- Log10TGI50 (OVCAR-5): −6.31
- Log10GI50 (HS 578T): −7.72
- Log10LC50 (HS 578T): >−4.00
- Log10TGI50 (HS 578T): −7.01
- Log10GI50 (786-0): −6.60
- Log10LC50 (786-0): −5.05
- Log10TGI50 (786-0): −5.84
- Log10GI50 (SK-MEL-5): −7.55
- Log10LC50 (SK-MEL-5): −6.30
- Log10TGI50 (SK-MEL-5): −6.97
- Log10GI50 (MDA-MB-435): −7.78
- Log10LC50 (MDA-MB-435): −7.07
- Log10TGI50 (MDA-MB-435): −7.42
- Log10GI50 (SK-OV-3): −7.15
- Log10TGI50 (SK-OV-3): −6.36
- Log10GI50 (RPMI-8226): −7.56
- Log10LC50 (RPMI-8226): >−4.00
- Log10TGI50 (RPMI-8226): −7.05

SMILES: CC(C)C[C@H](NC(=O)[C@H](COC(F)F)NC(=O)CN1CCOCC1)C(=O)N[C@@H](Cc1ccccc1)C(=O)N[C@@H](CC(C)C)C(=O)[C@@]1(C)CO1 [Example 2, (2S)-N-[(1S)-1-benzyl-2-[[(1S)-3-methyl-1-[(2R)-2-methyloxirane-2-carbonyl]butyl]-amino]-2-oxo-ethyl]-2-[[(2S)-3-(difluoromethoxy)-2-[(2-morpholinoacetyl)amino]propanoyl]amino]-4-methyl-pentanamide]
- Log10GI50 (TK-10): −7.47
- Log10LC50 (TK-10): >−4.00
- Log10TGI50 (TK-10): −5.73
- Log10GI50 (SK-MEL-2): −7.66
- Log10LC50 (SK-MEL-2): >−4.00
- Log10TGI50 (SK-MEL-2): −7.06
- Log10GI50 (UO-31): −6.49
- Log10LC50 (UO-31): −5.01
- Log10TGI50 (UO-31): −5.80
- Log10GI50 (SF-295): −7.80
- Log10LC50 (SF-295): −6.42
- Log10TGI50 (SF-295): −7.28
- Log10GI50 (UACC-257): −7.23
- Log10LC50 (UACC-257): −4.58
- Log10TGI50 (UACC-257): −6.43
- Log10GI50 (U251): −7.72
- Log10LC50 (U251): −5.63
- Log10TGI50 (U251): −6.87
- Log10GI50 (ACHN): −6.71
- Log10LC50 (ACHN): >−4.00
- Log10TGI50 (ACHN): >−4.00
- Log10GI50 (OVCAR-5): −7.47
- Log10LC50 (OVCAR-5): −4.54
- Log10TGI50 (OVCAR-5): −6.70
- Log10GI50 (HS 578T): −7.71
- Log10TGI50 (HS 578T): >−4.00
- Log10GI50 (786-0): −7.09
- Log10LC50 (786-0): >−4.00
- Log10TGI50 (786-0): −6.01
- Log10GI50 (SK-MEL-5): −7.53
- Log10LC50 (SK-MEL-5): −6.23
- Log10TGI50 (SK-MEL-5): −6.94
- Log10GI50 (MDA-MB-435): −7.99
- Log10LC50 (MDA-MB-435): −7.14
- Log10TGI50 (MDA-MB-435): −7.56
- Log10GI50 (SK-OV-3): −7.15
- Log10LC50 (SK-OV-3): >−4.00
- Log10TGI50 (SK-OV-3): −6.21
- Log10GI50 (RPMI-8226): −7.98
- Log10LC50 (RPMI-8226): >−4.00
- Log10TGI50 (RPMI-8226): −7.24

SMILES: CC(C)C[C@H](NC(=O)[C@H](COC(F)F)NC(=O)CN1CCOCC1)C(=O)N[C@@H](Cc1ccccc1)C(=O)N[C@@H](Cc1ccccc1)C(=O)[C@@]1(C)CO1 [Example 3, (2S)-N-[(1S)-1-benzyl-2-[[(1S)-1-benzyl-2-[(2R)-2-methyloxiran-2-yl]-2-oxo-ethyl]amino]-2-oxo-ethyl]-2-[[(2S)-3-(difluoromethoxy)-2-[(2-morpholinoacetyl)-amino]propanoyl]amino]-4-methyl-pentan-amide]
- Log10GI50 (TK-10): −7.55
- Log10LC50 (TK-10): >−4.00
- Log10TGI50 (TK-10): −5.91
- Log10GI50 (SK-MEL-2): −7.92
- Log10LC50 (SK-MEL-2): >−4.00
- Log10TGI50 (SK-MEL-2): −7.19
- Log10GI50 (UO-31): −6.65
- Log10LC50 (UO-31): −5.08
- Log10TGI50 (UO-31): −5.91
- Log10GI50 (SF-295): −7.34
- Log10LC50 (SF-295): −6.24
- Log10TGI50 (SF-295): −6.75
- Log10GI50 (UACC-257): −7.23
- Log10LC50 (UACC-257): −4.53
- Log10TGI50 (UACC-257): −6.40
- Log10GI50 (U251): <−8.00
- Log10LC50 (U251): −5.14
- Log10TGI50 (U251): −6.79
- Log10GI50 (ACHN): −7.13
- Log10LC50 (ACHN): >−4.00
- Log10TGI50 (ACHN): >−4.00
- Log10GI50 (OVCAR-5): −7.42
- Log10LC50 (OVCAR-5): >−4.00
- Log10TGI50 (OVCAR-5): −5.86
- Log10GI50 (HS 578T): <−8.00
- Log10LC50 (HS 578T): >−4.00
- Log10TGI50 (HS 578T): −7.01
- Log10GI50 (786-0): −7.22
- Log10LC50 (786-0): −4.14
- Log10TGI50 (786-0): −5.77
- Log10GI50 (SK-MEL-5): −7.71
- Log10LC50 (SK-MEL-5): −6.43
- Log10TGI50 (SK-MEL-5): −7.19
- Log10GI50 (MDA-MB-435): <−8.00
- Log10LC50 (MDA-MB-435): −7.34
- Log10TGI50 (MDA-MB-435): −7.90
- Log10GI50 (SK-OV-3): −7.26
- Log10LC50 (SK-OV-3): >−4.00
- Log10TGI50 (SK-OV-3): −6.16
- Log10GI50 (RPMI-8226): <−8.00
- Log10LC50 (RPMI-8226): >−4.00
- Log10TGI50 (RPMI-8226): −7.48
